Measurements published in PMC5402281, “Functional, thermodynamics, structural and biological studies of in silico-identified inhibitors of Mycobacterium tuberculosis enoyl-ACP(CoA) reductase enzyme” (Scientific Reports, 2017).
Marks after values point to notes of the source that are not given here.

Tests used:
Zebrafish embryos = assay: Zebrafish embryo toxicity: survival, hatching, heart frequency; format: in vivo, Danio rerio; conditions: for cardiotoxicity in the Zebrafish model: overall conclusion; for survival rate: treated from 2 hpf for 5 days, vs controls, Kaplan Meier
Protocol: Wild-type Zebrafish embryos were obtained from natural mating of adult Danio rerio bred[25] and maintained in an automated re-circulating tank system (Tecniplast, Italy). At 2 hpf (hours post fertilization) embryos were treated with different concentrations of compounds Labio_16 and Labio_17. Both compounds were diluted in DMSO for stock solutions of […] and diluted in fish water (Reverse Osmosis equilibrated with Instant Ocean Salt) to final concentrations of 1.0 μM, 3.5 μM and 7.0 μM (compound Labio_16) and 0.1 μM, 1.0 μM, 7.5 μM and 13.0 μM (compound Labio_17). Since both compounds were diluted first in DMSO, there were two control groups for each treatment, one only with fish water and the other one with the highest concentration of DMSO used in the treatments (0.035% for Labio_16 treatment and 0.065% for Labio_17 treatment).
Embryos were maintained in a 96 well plate during the 5 days of treatment inside an incubator with light-dark cycle of 14–10 hours and controlled temperature (28 °C)[25]. The solution pH and conductivity were monitored. Survival and hatching efficiency were accompanied under a stereomicroscope (OlympusSZ4045) every day, as well as developmental toxicity. Data for survival evaluation were analysed by Kaplan Meier survival test.
At 2 dpf (days post fertilization) and 5 dpf embryos heart frequency were quantified. For this, a single embryo per larvae was placed under a stereomicroscope (OlympusSZ4045) in petri-dishes with system water and their heart rate was monitored for 60 seconds by a blind experimenter (N = 10 in triplicates)[25][26]. For all procedures, temperature was kept constant at 28 °C. Data were analysed using One-way ANOVA, followed by Tukey multiple comparisons test.

[1] = format: physicochemical
Protocol: An HPLC equipped with a quaternary pump, DAD detector, degasser, column oven and an automatic injection system was used in this set of experiments (Thermo® Scientific, Sunnyvale, USA). Stock standard solutions (1 M) of Labio_16 and Labio_17 were prepared by diluting each standard in DMSO. Standard solutions were prepared by diluting the stock solution in fish water, yielding final concentrations of 0.625, 1.25, 2.50, 5.0 and 10.0 μM for Labio_16; and 0.625, 1.25, 2.50, 5.0, 10.0 and 20 μM for Labio_17 in a final volume of 0.5 mL.
Chromatographic separations were carried out using a Nucleodur C-18 column at 20 °C. The mobile phase was a 20:80% mixture of 0.1% glacial acetic acid and acetonitrile:methanol 1:1 (v/v) for Labio_16, and a mixture of 20:80% of 20 mM of ammonium acetate and acetonitrile:methanol 1:1 (v/v) for Labio_17. A flow rate of 1.5 mL min^−1 was employed in isocratic mode, with run time of 7 minutes for Labio_16 and 12 minutes for Labio_17. The DAD detector was set at 300 nm and a full scan was continuously performed. The calibration curve for both analytes presented a correlation coefficient above 0.99.

[2] = test system: M. tuberculosis H37Rv in infected RAW 264.7 macrophages; assay: Intracellular activity in M. tuberculosis-infected macrophages (CFU); format: cell-based, Mycobacterium tuberculosis; conditions: 5 μM; for Mean log CFU/well ± SEM: 5 days of incubation; for nature of intracellular activity (bactericidal / bacteriostatic): 5 days, vs early and late control

Compound | heart frequency at 5 dpf (Zebrafish embryos; 3.5 μM and 7.0 μM against DMSO control) | hatching efficiency (Zebrafish embryos; 1.0, 3.5, 7.0 μM vs controls) | heart frequency at 2 dpf (Zebrafish embryos; all groups, one-way ANOVA) | cardiotoxicity in the Zebrafish model (Zebrafish embryos) | survival rate (Zebrafish embryos) | decrease in compound concentration in stability test [1] | Mean log CFU/well ± SEM [2] | nature of intracellular activity (bactericidal / bacteriostatic) [2] | heart frequency at 5 dpf (Zebrafish embryos; 0.1 μM and 1.0 μM against H2O control) | heart frequency at 5 dpf (Zebrafish embryos; 1.0 μM compared to DMSO control) | hatching efficiency (Zebrafish embryos; two highest concentrations, 13.0 μM and 7.5 μM)
Cc1ccccc1OCc1nc(-c2ccc(NC(=O)c3cccs3)cc2)no1 [Labio_16] | a decrease in the heart rate | No difference | no difference | no cardiotoxicity | statistical difference | 21% | 3.9 ± 0.1 log CFU/well | bacteriostatic |  |  | 
CCOC(=O)c1ccc2nc(C)cc(Nc3ccc(N4CCCCC4)cc3)c2c1 [Labio_17] |  |  |  | signs of cardiotoxicity | dose-dependent statistical difference | 21% | 3.4 ± 0.1***^++ log CFU/well | bactericidal | no difference | no difference | delayed hatching efficiency
